# Several values for one entry are separate records, joined by “and”; a condition that tells them apart may be missing. Equal values may be shown once.
# Experiments:
# ApoE [1] = assay: ApoE in medium of rat primary type 1 astrocyte cultures exposed to probucol, immunoblot; type: cell-based
# Method: Apo E concentration was assessed in the cell culture medium by immunoblot analysis using methods previously described (Poirier et al., Neuroscience, 55:81-90 (1993)). In the absence of probucol (EtOH control) very little ApoE is detected in the media (i.e., the extracellular compartment). […] We also observed that the amount of ApoE detected in the media at 48 hours was less than the amount of ApoE in the media after only 24 hours of incubation. This time-dependent response in ApoE levels may reflect the continued division and growth of cells.
# ApoE [2] = assay: clinical trial: ApoE levels in CSF of AD patients treated with probucol, immunoblot; type: in vivo, human; details: probucol 1000 mg/day; for Average Change in ApoE (% baseline): one month of treatment, 8 patients
# Method: Biological Marker: A lumbar puncture was performed at baseline and one month after treatment. The relative concentrations of ApoE levels in the CSF were determined by immunoblot as described by Poirer, J. et al., Neuroscience 55:81-90 (1993).
# The cerebral spinal fluid (CSF) of the above subjects was analyzed for the concentration of ApoE protein by immunoblot using an internal standard. The samples for the first six patients were analyzed independently of the last two patients, thus the scales for patients 1-6 are different from the scales for patients 8 and 9.
# Alzheimer's disease [3] = assay: clinical trial: ADAS-Cog (70 point scale); type: in vivo, human
# Method: Neuropsychological Assessment: The Alzheimer's Disease Assessment Scale, Cognitive Part (ADAS-Cog) (see Rosen et al., Am. J. Psychiatr., 141:1356-1364 (1984)) was used as an objective neuropsychological measure. It consists of a battery of neuropsychological tests for different cognitive functions. The battery comes to a single score with a maximum of 70 points and is administered in about 45 minutes to patients. A 117 point extended scale version of this test was also used (see Table 5). […] The ADAS includes both cognitive (ADAS-Cog) and non-cognitive (ADAS-Noncog) subscales and the tests components of memory, language, and behavior. […] We further assessed the cognitive functioning of these patients with the extended scale ADAS-Cog test.
# Alzheimer's disease [4] = assay: clinical trial: Global Deterioration Scale; type: in vivo, human; set-up: Global Deterioration Scale, 3 months / Global Deterioration Scale, 6 months / Global Deterioration Scale, 3 months, Average / Global Deterioration Scale, 6 months, Average: scale not given here
# Method: Neuropsychological Assessment: The Clinical Impression of Change (CIBIC-Plus) and the Global Deterioration Scale (GDS) were recorded at 3 and 6 months. The Clinical Impression of Change (CIBIC-Plus) consists of the holistic impression by the clinician of whether the patient has shown any change since baseline as rated on a seven point sale (marked, moderate, mild improvement, no change, or marked, moderate, mild decline). The Global Deterioration Scale rates clinically identifiable stages of dementia. […] The GDS test provides a description of the key features of AD progression. […] The GDS is calculated as the average of scores related to the performance in the following areas of attention and concentration, recent memory, past memory, orientation, and functioning and self care.
# β-amyloid protein (1-40) = assay: clinical trial: CSF total β-amyloid (1-40); type: in vivo, human
# Excerpt: (§1) Biological Markers: Additional biochemical markers included phenotyping of the patients ApoE and determining relative concentrations of tau protein, P-amyloid protein (1-42 and 1-40); and relative extent of lipid peroxidation.
# (§2) Tables 11 and 12 summarize the changes in total β-amyloid protein (1-40 and 1-42) at one month, as a percentage of the baseline values.
# β-amyloid protein (1-42) = assay: clinical trial: CSF β-amyloid (1-42); type: in vivo, human; details: individual AD patient
# Excerpt: as §1, §2
# Tau protein = assay: clinical trial: Tau protein in the CSF; type: in vivo, human
# Excerpt: as §1
# cortical infarct = assay: Wistar rat middle cerebral artery occlusion stroke model; type: in vivo; details: rats dosed i.p. daily for ten days, 2 hour middle cerebral artery occlusion, 22 hours reperfusion
# Method: In particular, the Wistar rat model may be used with modifications. Briefly, rats are dosed (i.p.) daily with probucol or a saline negative control for ten days. On the tenth day, animals are then subjected to a 2 hour reversible, middle cerebral artery occlusion. Laser-Doppler flowmetry is used to monitor the ischemic period and early reperfusion. […] We predict that the cortical infarct volumes (indicative of neuronal damage) will be less in animals treated with probucol as compared to untreated animals.
# plasma apolipoproteins = details: cited from earlier work
# [5] = average of patients, baseline average 28.9
# [6] = individual AD patient, higher score indicates poorer performance
# [7] = average of patients, baseline average 4.7
smiles,measurement,setting,value
CC(C)(Sc1cc(C(C)(C)C)c(O)c(C(C)(C)C)c1)Sc1cc(C(C)(C)C)c(O)c(C(C)(C)C)c1 [probucol],extracellular amount of ApoE,"ApoE [1]; 1 nM, 24 hours post dosing, versus EtOH control",dramatically increased
same,extracellular ApoE with increasing concentrations,ApoE [1]; 100 nM and 10 uM versus 1 nM,Further increases
same,amount of ApoE in the media at 48 hours versus 24 hours,ApoE [1]; 48 hours compared with 24 hours of incubation,less
same,Change in ApoE (% baseline),"ApoE [2]; 1 month, individual AD patient",118% baseline and 89% baseline and 87% baseline and 152% baseline and 105% baseline and 178% baseline and 136% baseline and 133% baseline
same,ApoE 1 month (ROD),"ApoE [2]; individual AD patient, scales of patients 1-6 differ from patients 8 and 9",2.59 ROD and 7.14 ROD and 9.17 ROD and 0.1086 ROD and 0.0861 ROD and 8.03 ROD and 14.81 ROD and 10.27 ROD
same,Average Change in ApoE (% baseline),ApoE [2],125%
same,Average Change in ApoE (% baseline),ApoE [2]; listed as Probucol,125%
same,"ADAS-Cog (70 point scale) score, 3 months, Average",Alzheimer's disease [3]; [5],29.5
same,"ADAS-Cog (70 point scale) score, 6 months, Average",Alzheimer's disease [3]; [5],30.13
same,"ADAS-Cog (70 point scale) score, 3 months",Alzheimer's disease [3]; [6],37 and 41 and 22 and 18 and 27 and 29 and 34 and 28
same,"ADAS-Cog (70 point scale) score, 6 months",Alzheimer's disease [3]; [6],40 (2×) and 44 and 16 and 17 and 25 and 36 and 23
same,patient symptoms on the Global Deterioration Scale,Alzheimer's disease [4]; at three and six months,relative stabilization
same,"Global Deterioration Scale, 3 months, Average",Alzheimer's disease [4]; [7],4.8
same,"Global Deterioration Scale, 6 months, Average",Alzheimer's disease [4]; [7],5.3
same,"Global Deterioration Scale, 3 months",Alzheimer's disease [4]; individual AD patient,5 (2×) and 7 and 5.5 and 4.5 and 1.5 and 8 and 3.25 and 3.5
same,"Global Deterioration Scale, 6 months",Alzheimer's disease [4]; individual AD patient,6.5 and 7 and 5 and 6 and 1 and 8 and 3.5 and 5.5
same,"[β amyloid 1-40] in the CSF, % change","β-amyloid protein (1-40); 1 month as a percentage of the baseline value, individual AD patient",345% and 108% and 100% and 241% and 105% and 107% and 979% and 2157%
same,"[β amyloid 1-40] in the CSF, 1 month","β-amyloid protein (1-40); individual AD patient, average of triplicate assays",3.44 and 3.95 and 4.96 and 7.55 and 3.26 and 3.51 and 5.35 and 2.16
same,levels of β-amyloid in the CSF,"β-amyloid protein (1-40); one month of treatment, Alzheimer's patients, β-amyloid 1-40 and 1-42",overall increase
same,"[β amyloid 1-42] in the CSF, % change",β-amyloid protein (1-42); 1 month as a percentage of the baseline value,242% and 142% (2×) and 56% and 195% and 624% and 2144%
same,"[β amyloid 1-42] in the CSF, 1 month",β-amyloid protein (1-42); average of triplicate assays,2.48 and 3.92 and 0.76 and 1.78 and 2.15 and 0.31 and 1.06 and 1.29
same,"Tau concentration in the CSF, % change","Tau protein; 1 month relative to baseline, individual AD patient",93% and 109% and 97% and 92% and 102% and 113% and 94% and 131% and 99%
same,"Tau concentration in the CSF, 1 month",Tau protein; individual AD patient,188 and 1099 and 251 and 1070 and 458 and 1120 and 394 and 916 and 620
same,"effect on Tau levels in the CSF, as a group",Tau protein; one month relative to baseline,no effect
same,cortical infarct volumes compared to untreated animals,cortical infarct,less
same,"total plasma apoB, apoA-1, apoA-II, apoC-II and apoC-III","plasma apolipoproteins; human, in vivo",lower
same,circulating ApoE levels,plasma apolipoproteins; probucol-treated hypercholesterolemic patients,increased
same,effectiveness in subjects with apoE2/2 genotype,plasma apolipoproteins; subjects with a very high physiological concentration of ApoE,totally uneffective
